System: M17-TAU P301L cells
Assay: Tau-induced toxicity experiment: LDH leakage of retinoic acid incubated M17-TAU P301L cells
Format: cell-based
Conditions: Homo sapiens, Neuroblastoma cell, 168 h; reduction of LDH activity of retinoic acid incubated M17-TAU P301L neuroblastoma cells; 7 days incubation; Promega Cytotox 96 assay
Description: A TAU expression plasmid was constructed by sub-cloning the cDNA of human TAU-P301L (encoding for TAU with proline 301 substituted by a leucine residue) into mammalian expression vector pcDNA3.1 resulting in plasmid pcDNA3.1-TAU P301L. Plasmids pcDNA3.1 and pcDNA3.1-TAU P301L were transfected to human neuroblastoma cells ([…]; ATCC No. CRL-2267) and independent clonal lines with the plasmids stably integrated into the genome were selected. […] Expression of the TAU P301L genes in the cell lines was confirmed by Western analysis.
In degenerated or dead cells lactate dehydrogenase (LDH) is leaked out of the cells into the extracellular environment due to a loss of plasma-membrane integrity. This principle was used to determine cytotoxicity by quantifying the level of leaked LDH into the growth medium.
The detailed method for determining TAU cytotoxicity was as follows: From appropriate precultures of M17-3.1 and M17-TAU(P301L) cells were seeded at 2500 cells/cm2 in Optimem Reduced Serum without phenol red (Gibco, Cat. 31985-047) supplemented with 1% fetal calf serum, 1 mM sodium pyruvate, 1× non-essential amino acids, 500 μg/ml G418 0.5× antibiotic/antimycotic. After 3 h of incubation at 37° C./5% CO2 1 volume of Optimem Reduced Serum (same as described above; except without fetal calf serum) supplemented with 2.5 μM retinoic acid (RA) was added. The cells were further incubated for 7 days. Subsequently, LDH activity was determined using Promega Cytotox 96 Non-Radioactive cytotoxicity assay, (Cat. G1780) according the supplier's instructions.
The M17-TAU P301L cell line made it possible to assess the ability of novel compounds to counteract TAU cytotoxicity. […] These measurements were used to calculate EC50 values of table 2.
Exemplary compounds of the present invention are shown in table 2, with their chemical name and their EC50 value (expressed in nM) as determined from example 75 in the Tau-induced toxicity experiment.

Row | Structure (SMILES) | EC50 [µM]
1 | O=C(NCCc1c[nH]c2ccc(Cl)cc12)c1cccc(-c2cccc(F)c2)c1 [Cpd047, N-(2-(5-chloro-1H-indol-3-yl)ethyl)-3′-fluorobiphenyl-3-carboxamide] | 0.408
2 | N#Cc1cccc(-c2ccccc2C(=O)NCCc2c[nH]c3ccc(Cl)cc23)c1 [Cpd048, N-(2-(5-chloro-1H-indol-3-yl)ethyl)-3′-cyanobiphenyl-2-carboxamide] | 0.232
3 | N#Cc1cccc(-c2cccc(C(=O)NCCc3c[nH]c4ccc(Cl)cc34)c2)c1 [Cpd049, N-(2-(5-chloro-1H-indol-3-yl)ethyl)-3′-cyanobiphenyl-3-carboxamide] | 0.061
4 | N#Cc1cccc(-c2ccc(C(=O)NCCc3c[nH]c4ccc(Cl)cc34)cc2)c1 [Cpd050, N-(2-(5-chloro-1H-indol-3-yl)ethyl)-3′-cyanobiphenyl-4-carboxamide] | 0.024
5 | N#Cc1ccc(-c2ccccc2C(=O)NCCc2c[nH]c3ccc(Cl)cc23)cc1 [Cpd051, N-(2-(5-chloro-1H-indol-3-yl)ethyl)-4′-cyanobiphenyl-2-carboxamide] | 0.325
6 | N#Cc1ccc(-c2cccc(C(=O)NCCc3c[nH]c4ccc(Cl)cc34)c2)cc1 [Cpd052, N-(2-(5-chloro-1H-indol-3-yl)ethyl)-4′-cyanobiphenyl-3-carboxamide] | 0.112
7 | N#Cc1ccc(-c2ccc(C(=O)NCCc3c[nH]c4ccc(Cl)cc34)cc2)cc1 [Cpd053, N-(2-(5-chloro-1H-indol-3-yl)ethyl)-4′-cyanobiphenyl-4-carboxamide] | 0.085
8 | O=C(NCCc1c[nH]c2ccc(Cl)cc12)c1ccccc1-c1ccccc1Cl [Cpd054, 2′-chloro-N-(2-(5-chloro-1H-indol-3-yl)ethyl)biphenyl-2-carboxamide] | 0.17
9 | O=C(NCCc1c[nH]c2ccc(Cl)cc12)c1cccc(-c2ccccc2Cl)c1 [Cpd055, 2′-chloro-N-(2-(5-chloro-1H-indol-3-yl)ethyl)biphenyl-3-carboxamide] | 0.158
10 | O=C(NCCc1c[nH]c2ccc(Cl)cc12)c1ccccc1-c1cccc(Cl)c1 [Cpd057, 3′-chloro-N-(2-(5-chloro-1H-indol-3-yl)ethyl)biphenyl-2-carboxamide] | 0.159
11 | O=C(NCCc1c[nH]c2ccc(Cl)cc12)c1cccc(-c2cccc(Cl)c2)c1 [Cpd058, 3′-chloro-N-(2-(5-chloro-1H-indol-3-yl)ethyl)biphenyl-3-carboxamide] | 0.186
12 | O=C(NCCc1c[nH]c2ccc(Cl)cc12)c1ccc(-c2cccc(Cl)c2)cc1 [Cpd059, 3′-chloro-N-(2-(5-chloro-1H-indol-3-yl)ethyl)biphenyl-4-carboxamide] | 0.13
13 | O=C(NCCc1c[nH]c2ccc(Cl)cc12)c1cccc(-c2ccc(Cl)cc2)c1 [Cpd060, 4′-chloro-N-(2-(5-chloro-1H-indol-3-yl)ethyl)biphenyl-3-carboxamide] | 0.159
14 | O=C(NCCc1c[nH]c2ccc(Cl)cc12)c1ccc(-c2ccc(Cl)cc2)cc1 [Cpd061, 4′-chloro-N-(2-(5-chloro-1H-indol-3-yl)ethyl)biphenyl-4-carboxamide] | 0.111
15 | O=C(NCCc1c[nH]c2ccc(Cl)cc12)c1ccccc1-c1ccc(Cl)cc1 [Cpd063, 4′-chloro-N-(2-(5-chloro-1H-indol-3-yl)ethyl)biphenyl-2-carboxamide] | 0.154
16 | O=C(NCCc1c[nH]c2ccc(Cl)cc12)c1ccccc1-c1cccc(C(F)(F)F)c1 [Cpd064, N-(2-(5-chloro-1H-indol-3-yl)ethyl)-3′-(trifluoromethyl)biphenyl-2-carboxamide] | 0.418
17 | O=C(NCCc1c[nH]c2ccc(Cl)cc12)c1cccc(-c2ccccc2C(F)(F)F)c1 [Cpd065, N-(2-(5-chloro-1H-indol-3-yl)ethyl)-2′-(trifluoromethyl)biphenyl-3-carboxamide] | 0.089
18 | O=C(NCCc1c[nH]c2ccc(Cl)cc12)c1ccc(-c2cccc(C(F)(F)F)c2)cc1 [Cpd066, N-(2-(5-chloro-1H-indol-3-yl)ethyl)-3′-(trifluoromethyl)biphenyl-4-carboxamide] | 0.092
19 | O=C(NCCc1c[nH]c2ccc(Cl)cc12)c1cccc(-c2ccc(C(F)(F)F)cc2)c1 [Cpd068, N-(2-(5-chloro-1H-indol-3-yl)ethyl)-4′-(trifluoromethyl)biphenyl-3-carboxamide] | 0.367
20 | Cc1cccc(C)c1-c1cccc(C(=O)NCCc2c[nH]c3ccc(Cl)cc23)c1 [Cpd070, N-(2-(5-chloro-1H-indol-3-yl)ethyl)-2′,6′-dimethylbiphenyl-3-carboxamide] | 0.606
21 | Cc1ccc(-c2ccccc2C(=O)NCCc2c[nH]c3ccc(Cl)cc23)cc1C [Cpd071, N-(2-(5-chloro-1H-indol-3-yl)ethyl)-3′,4′-dimethylbiphenyl-2-carboxamide] | 0.546
22 | O=C(NCCc1c[nH]c2ccc(Cl)cc12)c1ccc(-c2ccc(C(F)(F)F)cc2)cc1 [Cpd074, N-(2-(5-chloro-1H-indol-3-yl)ethyl)-4′-(trifluoromethyl)biphenyl-4-carboxamide] | 0.2
23 | O=C(NCCc1c[nH]c2ccc(Cl)cc12)c1ccc(-c2ccccc2)nn1 [Cpd075, N-(2-(5-chloro-1H-indol-3-yl)ethyl)-6-phenylpyridazine-3-carboxamide] | 0.081

— patent US9284271B2, “Compounds for the treatment of neurodegenerative diseases” (Katholieke Universiteit Leuven, K.U. Leuven R&D, priority 2010, dated 2016)
